Measured values reported in patent US8946201B2, “Methods for inhibiting TGF-β” (Saint Louis University, priority 2007, dated 2015).

Tests used:
[1] = tested on: hair growth; assay: Hair growth assay in mice; format: in vivo, mice (C57BL/6); details: lotion containing 0.025% cholesterol, topical every two days
Method: FIG. 7. Hair growth promotion in mice topically treated with cholesterol. Mice (female, 6 weeks old) were subjected to hair removal by using hair remover lotion Nair®. The areas after hair removal were treated with the lotion containing vehicle only or 0.025% cholesterol on the first day and every other two days. Photographs were taken immediately after hair removal and prior to topical application with vehicle (a,b,c) or lotion containing cholesterol (d,e,f). Photographs were taken at days 0 (a,d), 10 (b,e) and 18 (c,f). The dark color indicates an early stage of hair growth.
Hair at the back of female mice (C57BL/6, 6-8 weeks old, were removed by using Nair® lotion hair remover. Lotions containing 0.025 and 0.00625% cholesterol and vehicle only were topically applied onto the area where the hair was removed. On the first day and every other day, photographs were taken prior to administration of the lotions. On day 18, the re-grown hair was shaved and weighed.
The hair growth cycle is coordinated with complex processes that are dependent on the interactions of epithelial and dermal components (follicle keratinocytes and dermal papilla cells). The hair growth cycle includes two major phases, growing phase (anagen) and regression phase (catagen). The length and size of hair are dependent on the anagen term in the hair cycle. […]

[2] = tested on: Smad2 phosphorylation stimulated by TGF-β1; assay: TGF-β1-stimulated Smad2 phosphorylation, Western blot, NRK cells; format: cell-based, rat; details: 25 μg/ml, 37° C. 1 hr, then 50 pM TGF-β1 0.5 hr
Method: Cells were treated with increasing concentrations of cholesterol, as indicated (A, B, C), 50 μg protein/ml LDL (D), 5 μg protein/ml VLDL (D) or 50 μg/ml cholesterol (E) at 37° C. for 1 hr and then further incubated with 50 pM TGF-β1 for 30 min. Phosphorylated Smad2 (P-Smad2) and total Smad2 in the cell lysates were analyzed by 7.5% SDS-PAGE and followed by immunoblot analysis using anti-P-Smad2 and anti-Smad2 antibodies. A representative of a total of 3 analyses is shown (top). The quantitative analysis of the immunoblots is shown (bottom). […] Smad2 nuclear translocation was analyzed by indirect immunofluorescent staining using P-Smad2 antibody and rhodamine-labeled 2nd antibody (E). Rhodamine fluorescence represents P-Smad2 staining (a,b,c) whereas the nuclei were stained by DAPI staining (d,e,f).
Cells grown to near confluence on 12-well cluster dishes were treated with cholesterol or LDL in serum-free DMEM (vol.=0.5 ml/well) at 37° C. for 1 hr. […] Treated cells were lysed and cell lysates were analyzed by 7.5% SDS-PAGE and Western blot analysis using anti-Smad2, anti-P-Smad2, anti-caveolin-1, anti-TβR-I (alk5) or anti-TβR-II antibodies as described previously (30). […]
It has been reported that TGF-β responsiveness is determined by TGF-β partitioning between lipid raft/caveolae-mediated and clathrin-mediated endocytosis. […]

In the case of `CC(C)CCC[C@@H](C)[C@H]1CC[C@H]2[C@@H]3CC=C4C[C@@H](O)CC[C@]4(C)[C@H]3CC[C@]12C` [cholesterol], the hair growth ([1]; day 10) is reported as “the hair started to grow”, the hair growth ([1]; day 18) is reported as “fully grown hair” and the “suppression of Smad2 phosphorylation stimulated by TGF-β1” value [2] is reported as 40%.
